In patent US10155798B2, “Anti-obesity compounds derived from neuromedin U” (The Regents of the University of California, priority 2013, dated 2018):
*1 amine or outer side, *2 acyl side, *3 side chain or, on linkers, in order; H or OH if unused. Where a SMILES comes first, the peptide text is derived from it. Bridges are numbered along the chain shown (N, C = ends). [ ]: non-standard residue; d: D form. The star is where a group is joined. mXylylene(5-CH2SC16H33) = CCCCCCCCCCCCCCCCSCc1cc(C[*:1])cc(C[*:2])c1; PEG12 = NCCOCCOCCOCCOCCOCCOCCOCCOCCOCCOCCOCCOCCC(=O)O; Palmitoyl = CCCCCCCCCCCCCCCC(=O)*; Tic = O=C(O)[C@@H]1Cc2ccccc2CN1; Aib = CC(C)(N)C(=O)O; Ahx = NCCCCCC(=O)O

How the values were obtained:
[1] = biological target: T1, NMUR1 (neuromedin U 1 receptor) (Homo sapiens, UniProt Q9HB89); test: Calcium mobilization assay, HEK-NMU1 cells; type: cell-based; conditions: HEK293 cells expressing NMU1 receptor, NA = not active
T1 construct: expressed in transfected cells; host or cells: HEK293 (HEK-NMU1)
T1 sequence (Q9HB89 1-426): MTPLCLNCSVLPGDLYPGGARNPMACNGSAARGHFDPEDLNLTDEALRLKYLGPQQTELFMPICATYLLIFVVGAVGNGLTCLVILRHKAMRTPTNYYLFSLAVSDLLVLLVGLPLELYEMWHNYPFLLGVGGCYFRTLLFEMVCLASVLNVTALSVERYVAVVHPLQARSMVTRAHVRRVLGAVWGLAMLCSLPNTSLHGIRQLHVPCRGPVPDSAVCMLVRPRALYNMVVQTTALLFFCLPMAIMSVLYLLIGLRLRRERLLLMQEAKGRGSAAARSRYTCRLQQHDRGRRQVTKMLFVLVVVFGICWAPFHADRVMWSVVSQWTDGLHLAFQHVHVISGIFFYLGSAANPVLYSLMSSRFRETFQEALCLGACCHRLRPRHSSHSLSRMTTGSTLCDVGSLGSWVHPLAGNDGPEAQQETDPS
Procedure: (§1) To test whether neuromedin U can be modified/derivatized to yield truncated bioactive compound(s) that may be useful as therapeutics, we synthesized a small library (25 peptides) of hNMU analogs utilizing various stabilization protocols, including: cyclization, lipidation, introduction of α,α-disubstituted and N-methylated amino acids, retro-inverso-approach, and combination of such (see Table 1). Subsequently all analogues were tested against human neuromedin U receptors (NMUR1 and NMUR2) in calcium mobilization assay (collaboration with Dr Gary Willars, University of Leicester, UK).
HEK293 cells expressing either the neuromedin U 1 receptor or neuromedin U 2 receptor (HEK-NMU1 and HEK-NMU2 respectively) were grown to approximately 90% confluence in ELISA strip plates (96-well format) pre-coated with poly-D-lysine (0.1% w/v) and loaded for 45 min at 37° C. with 2 iM fluo-4-AM in Krebs'-HEPES buffer with bovine serum albumin (KHB-BSA; composition: 10 mM HEPES; 4.2 mM NaHCO3; 11.7 mM D-glucose; 1.18 mM MgSO4.7H2O; 1.18 mM KH2PO4; 4.69 mM KCl; 118 mM NaCl; 1.3 mM CaCl2.2H2O; 0.1% (w/v) BSA; pH 7.4). Monolayers were then washed and equilibrated for 5 min at 37° C. in 100 il KHB-BSA for subsequent recording of fluorescence as an index of intracellular [Ca^2+] ([Ca^2+]i) using a microplate reader (NOVOstar; BMG LABTECH, Aylesbury, U.K.). […]

[2] = biological target: T2, NMUR2 (neuromedin U 2 receptor) (Homo sapiens, UniProt Q9GZQ4); test: Calcium mobilization assay, HEK-NMU2 cells; type: cell-based; conditions: HEK293 cells expressing NMU2 receptor, NA = not active
T2 construct: expressed in transfected cells; host or cells: HEK293 (HEK-NMU2)
Procedure: as §1
HEK293 cells expressing either the neuromedin U 1 receptor or neuromedin U 2 receptor (HEK-NMU1 and HEK-NMU2 respectively) were grown to approximately 90% confluence in ELISA strip plates (96-well format) pre-coated with poly-D-lysine (0.1% w/v) and loaded for 45 min at 37° C. with 2 iM fluo-4-AM in Krebs'-HEPES buffer with bovine serum albumin (KHB-BSA; composition: 10 mM HEPES; 4.2 mM NaHCO3; 11.7 mM D-glucose; 1.18 mM MgSO4.7H2O; 1.18 mM KH2PO4; 4.69 mM KCl; 118 mM NaCl; 1.3 mM CaCl2.2H2O; 0.1% (w/v) BSA; pH 7.4). Monolayers were then washed and equilibrated for 5 min at 37° C. in 100 il KHB-BSA for subsequent recording of fluorescence as an index of intracellular [Ca^2+] ([Ca^2+]i) using a microplate reader (NOVOstar; BMG LABTECH, Aylesbury, U.K.). Briefly, 20 μl of KHB-BSA, with or without ligand, was added into the well (200 μl/s) and fluorescence determined at 0.5 s intervals by excitation at 485 nm and collection of emitted light at 520 nm. Changes in fluorescence above basal levels (before ligand addition) were determined. […] Fmax was obtained by removal of buffer and addition of KHB-BSA buffer containing 4 mM [Ca^2+] and ionomycin (2 μM) to representative wells and the fluorescence measured for 10 min. Fmin was then derived by replacing buffer with Ca^2+-free KHB-BSA buffer containing 2 mM EGTA and fluorescence measured for 10 min. For the determination of concentration-response relationships, the maximal change in [Ca^2+]i was calculated following ligand addition. Concentration-response curves were then fitted using a four-parameter logistic equation to determine EC50 values (GraphPad Software Inc., Calif.).

[3] = test system: diet induced obese (DIO) mouse model; test: Single dose in vivo anorectic experiments in DIO mouse model; conditions: DIO mice
From the text: FIG. 3. Single dose in vivo experiments performed in DIO mouse model. (A) Comparison of anorectic effects of NM4 and NM7. (B) NM4 dose response experiments. (C) Comparison of NM4 and NM4A anorectic activity.
Initially we focused on single dose experiments comparing NM4 and NM7 at 5344 nMole/kg dose (FIG. 3).

T2 sequence (Q9GZQ4 whole entry): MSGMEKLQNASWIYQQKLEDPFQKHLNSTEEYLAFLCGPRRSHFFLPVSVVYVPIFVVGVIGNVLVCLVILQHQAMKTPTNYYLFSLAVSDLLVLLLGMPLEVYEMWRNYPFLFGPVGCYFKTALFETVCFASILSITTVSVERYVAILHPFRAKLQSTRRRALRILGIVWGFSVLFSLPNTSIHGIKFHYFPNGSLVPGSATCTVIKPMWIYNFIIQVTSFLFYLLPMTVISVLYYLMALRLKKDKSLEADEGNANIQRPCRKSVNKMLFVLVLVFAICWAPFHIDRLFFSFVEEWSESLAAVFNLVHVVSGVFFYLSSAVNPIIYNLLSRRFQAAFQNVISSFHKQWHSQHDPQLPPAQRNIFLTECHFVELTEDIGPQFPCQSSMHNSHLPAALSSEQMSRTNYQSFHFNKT

EC50 [1] [µM] | EC50 [2] [µM] | SMILES | anorectic activity, single dose ([3]; single dose 5344 nMole/kg, FIG. 3A) | dose dependence of anorectic effects ([3]; single dose, FIG. 3B)
3.98 | 2.69 | CC(C)C[C@H](NC(=O)[C@H](Cc1ccccc1)NC(=O)CCCCCNC(=O)[C@@H](N)CS)C(=O)N[C@@H](Cc1ccccc1)C(=O)N[C@@H](CCCNC(=N)N)C(=O)N1Cc2ccccc2C[C@H]1C(=O)N[C@@H](CCCNC(=N)N)C(=O)N[C@@H](CC(N)=O)C(=O)NCCCCCC(=O)N[C@@H](CS)C(N)=O [NM10, C-Ahx-FL-Phe-Arg-Tic-R-Asn-Ahx-C] (H-C[Ahx]FLFR[Tic]RN[Ahx]C-NH2) | – | –
3.98 | – | CCCCCCCCCCCCCCCCSCc1cc2cc(c1)CSC[C@H](N)C(=O)NCCCCCC(=O)N[C@@H](Cc1ccccc1)C(=O)N[C@@H](CC(C)C)C(=O)N[C@@H](Cc1ccccc1)C(=O)N[C@@H](CCCNC(=N)N)C(=O)N1Cc3ccccc3C[C@H]1C(=O)N[C@@H](CCCNC(=N)N)C(=O)N[C@@H](CC(N)=O)C(=O)NCCCCCC(=O)N[C@H](C(N)=O)CSC2 [NM16, PalS-X(C-Ahx-FL-Phe-Arg-Tic-R-Asn-Ahx-C)] (H-C[Ahx]FLFR[Tic]RN[Ahx]C-NH2; linker 1-11 via mXylylene(5-CH2SC16H33)) | – | –
– | 0.0017 ± 0.00029 | CCCCCCCCCCCCCCCC(=O)NCCOCCOCCOCCOCCOCCOCCOCCOCCOCCOCCOCCOCCC(=O)NC(C)(C)C(=O)N[C@@H](Cc1ccccc1)C(=O)N[C@@H](CC(C)C)C(=O)N[C@@H](Cc1ccccc1)C(=O)N[C@@H](CCCNC(=N)N)C(=O)N1CCC[C@H]1C(=O)N[C@@H](CCCNC(=N)N)C(=O)N[C@@H](CC(N)=O)C(N)=O [Peptide M4, Pal-dPEG12-Aib-FL-Phe-Arg-Pro-R-Asn] ({Palmitoyl-PEG12}-[Aib]FLFRPRN-NH2) | significant anorectic activity | dose-dependent
